Assay results reported in ChEMBL document CHEMBL1201862, “PubChem BioAssay data set” (2004).
Active and inactive are the calls of the source.

How the values were obtained:
[1] = A Cell Based Secondary Assay To Explore Cytotoxicity of Compounds that Sensitize Mycobacterium Tuberculosis to Beta-Lactam Antibiotics.; type: functional
Estrogen receptor = target: T1, Estrogen receptor (Homo sapiens, UniProt P03372);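 also: potency for inhibiting coactivator peptide recruitment to the receptor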
T1 sequence (P03372 whole entry): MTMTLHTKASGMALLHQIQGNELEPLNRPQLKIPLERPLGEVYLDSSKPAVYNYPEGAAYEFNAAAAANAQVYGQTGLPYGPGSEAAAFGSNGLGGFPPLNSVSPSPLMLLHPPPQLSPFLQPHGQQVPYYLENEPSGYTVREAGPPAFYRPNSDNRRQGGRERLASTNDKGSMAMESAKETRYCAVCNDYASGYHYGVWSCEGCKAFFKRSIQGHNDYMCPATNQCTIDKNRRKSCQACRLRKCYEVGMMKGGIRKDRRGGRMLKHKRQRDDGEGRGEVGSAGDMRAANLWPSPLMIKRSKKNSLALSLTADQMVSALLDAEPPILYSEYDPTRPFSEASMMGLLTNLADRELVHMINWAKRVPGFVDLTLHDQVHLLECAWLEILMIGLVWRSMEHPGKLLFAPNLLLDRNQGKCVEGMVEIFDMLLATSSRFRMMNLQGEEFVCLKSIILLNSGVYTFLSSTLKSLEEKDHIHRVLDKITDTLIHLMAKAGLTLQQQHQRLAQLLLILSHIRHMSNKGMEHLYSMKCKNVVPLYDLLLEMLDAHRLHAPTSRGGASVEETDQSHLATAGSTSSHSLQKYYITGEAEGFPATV

fMet-Leu-Phe receptor = target: T2, fMet-Leu-Phe receptor (Homo sapiens, UniProt P21462); assay: FPR ligands, dose response (AID 519); type: functional
T2 sequence (P21462 whole entry): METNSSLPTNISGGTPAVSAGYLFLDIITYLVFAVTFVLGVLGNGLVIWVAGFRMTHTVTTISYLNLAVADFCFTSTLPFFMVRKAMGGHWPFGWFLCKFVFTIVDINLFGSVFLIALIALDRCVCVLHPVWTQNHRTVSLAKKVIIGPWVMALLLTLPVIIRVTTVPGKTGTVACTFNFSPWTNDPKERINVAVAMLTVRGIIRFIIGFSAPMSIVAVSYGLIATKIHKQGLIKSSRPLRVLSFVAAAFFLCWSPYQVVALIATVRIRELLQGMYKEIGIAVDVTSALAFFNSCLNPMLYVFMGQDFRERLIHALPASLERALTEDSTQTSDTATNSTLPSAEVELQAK

[2] = A cytotoxicity screen of small molecule inhibitors of the PhoP region in Salmonella typhi identified in the primary screen. [Related pubchem assays: 1850, 1864, 1985 ]; type: functional
[3] = target: Glyceraldehyde-3-phosphate dehydrogenase (Homo sapiens, UniProt P04406)
[4] = target: T3, Alkaline phosphatase, tissue-nonspecific isozyme (Homo sapiens, UniProt P05186); assay: human TNAP enzyme inhibitors, SAR follow-up, biochemical, luminescent, dose response (AID 1056)
T3 sequence (P05186 whole entry): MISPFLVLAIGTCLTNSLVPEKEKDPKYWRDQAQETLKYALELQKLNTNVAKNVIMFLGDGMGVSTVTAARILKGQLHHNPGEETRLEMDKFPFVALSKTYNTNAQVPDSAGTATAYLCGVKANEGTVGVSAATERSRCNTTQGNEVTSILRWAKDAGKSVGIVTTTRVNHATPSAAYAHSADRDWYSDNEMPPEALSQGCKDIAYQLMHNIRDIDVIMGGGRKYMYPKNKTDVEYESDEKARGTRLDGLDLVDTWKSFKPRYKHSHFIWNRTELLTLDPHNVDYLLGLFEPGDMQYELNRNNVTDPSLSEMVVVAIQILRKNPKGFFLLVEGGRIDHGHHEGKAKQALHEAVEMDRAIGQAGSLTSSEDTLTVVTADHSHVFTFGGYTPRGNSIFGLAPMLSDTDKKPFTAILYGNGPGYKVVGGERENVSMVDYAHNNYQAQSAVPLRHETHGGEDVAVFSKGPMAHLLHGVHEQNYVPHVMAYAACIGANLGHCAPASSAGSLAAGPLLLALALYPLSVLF

[5] = target: T4, Epstein-Barr nuclear antigen 1 (Epstein-Barr virus (strain B95-8) (HHV-4) (Human herpesvirus 4), UniProt P03211); assay: EBNA-1 inhibitors, dose response, biochemical, fluorescence polarization, 1536-well (AID 2381); parameters: species or system human gammaherpesvirus 4;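 also: fluorescence polarization of a Cy5 DNA probe bound by EBNA-1 protein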
T4 sequence (P03211 whole entry): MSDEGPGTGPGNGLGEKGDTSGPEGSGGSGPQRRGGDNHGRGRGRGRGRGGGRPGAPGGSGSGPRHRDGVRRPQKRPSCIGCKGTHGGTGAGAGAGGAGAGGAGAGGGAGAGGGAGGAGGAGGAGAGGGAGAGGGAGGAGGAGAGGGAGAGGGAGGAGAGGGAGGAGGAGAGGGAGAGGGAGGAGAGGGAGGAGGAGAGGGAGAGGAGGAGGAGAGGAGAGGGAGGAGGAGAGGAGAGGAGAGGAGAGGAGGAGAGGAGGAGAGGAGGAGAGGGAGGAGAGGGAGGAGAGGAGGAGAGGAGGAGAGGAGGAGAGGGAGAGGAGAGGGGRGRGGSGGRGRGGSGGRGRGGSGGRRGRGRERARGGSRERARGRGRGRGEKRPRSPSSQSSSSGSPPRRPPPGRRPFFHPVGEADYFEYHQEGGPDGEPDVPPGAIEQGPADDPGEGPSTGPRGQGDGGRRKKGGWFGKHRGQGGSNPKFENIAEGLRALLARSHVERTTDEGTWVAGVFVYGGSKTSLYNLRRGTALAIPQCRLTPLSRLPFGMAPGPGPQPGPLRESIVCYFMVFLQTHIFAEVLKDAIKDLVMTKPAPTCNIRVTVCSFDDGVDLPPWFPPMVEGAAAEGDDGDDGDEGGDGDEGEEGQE

[6] = target: T5, Lytic switch protein BZLF1 (Epstein-Barr virus (strain B95-8) (HHV-4) (Human herpesvirus 4), UniProt P03206); assay: EBV ZTA inhibitors, dose response, counter-screen for EBNA-1 inhibitor project, biochemical, fluorescence polarization, Epstein-Barr virus, 1536-well (AID 2377); parameters: species or system human gammaherpesvirus 4;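 also: fluorescence polarization of Cy5-labelled ZRE DNA probe bound by purified Zta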
T5 sequence (P03206 whole entry): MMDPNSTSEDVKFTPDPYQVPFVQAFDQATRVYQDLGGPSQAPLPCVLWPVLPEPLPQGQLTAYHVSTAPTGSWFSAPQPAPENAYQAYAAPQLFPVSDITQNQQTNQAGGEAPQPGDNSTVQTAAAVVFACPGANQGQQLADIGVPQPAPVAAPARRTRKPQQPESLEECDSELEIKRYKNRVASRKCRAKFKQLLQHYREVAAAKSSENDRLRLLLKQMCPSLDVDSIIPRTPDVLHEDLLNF

[7] = target: T6, DNA repair protein RAD52 homolog (Homo sapiens, UniProt P43351); type: functional, biochemical
T6 sequence (P43351 whole entry): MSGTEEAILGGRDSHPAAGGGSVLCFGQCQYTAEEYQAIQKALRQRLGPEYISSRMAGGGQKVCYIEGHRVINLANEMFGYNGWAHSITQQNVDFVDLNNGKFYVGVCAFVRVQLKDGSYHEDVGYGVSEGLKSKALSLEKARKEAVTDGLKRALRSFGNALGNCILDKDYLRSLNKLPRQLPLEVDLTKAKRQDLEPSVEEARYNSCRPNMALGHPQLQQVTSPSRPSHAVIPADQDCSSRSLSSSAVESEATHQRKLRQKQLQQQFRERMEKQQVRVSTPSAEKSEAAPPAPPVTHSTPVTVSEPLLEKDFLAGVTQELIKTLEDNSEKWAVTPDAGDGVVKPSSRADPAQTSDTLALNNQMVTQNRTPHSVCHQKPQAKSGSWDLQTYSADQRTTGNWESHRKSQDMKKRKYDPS

[8] = ADAM10 inhibitors, peptide cleavage, dose response, biochemical, QFRET (AID 743254);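 also: ADAM10 enzyme with the DM2 quenched FRET peptide as substrate; EDANS fluorescence gain as the protease cuts the substrate; inhibitor potency against ADAM10 proteolytic activity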
[9] = target: Disintegrin and metalloproteinase domain-containing protein 17 (Homo sapiens, UniProt P78536); assay: ADAM17 protease inhibitors, dose response, counter-screen for ADAM10 exosite inhibitor project, biochemical, quenched FRET substrate (AID 743253)
[10] = inhibitors of intracellular T. cruzi replication, confirmation, NIH3T3 host cells, beta-gal luminescence (AID 2044); type: functional, cell-based;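 also: intracellular parasites grown in NIH/3T3 mouse fibroblasts as host cells; luminescent beta-galactosidase reporter signal from transgenic T. cruzi replicating inside host cells; inhibitors lower the luminescence signal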
[11] = cytotoxicity toward NIH3T3 fibroblasts, dose response, counter-screen, cell-based, ATP luminescence, mouse fibroblasts (AID 2010); type: functional;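 also: cells exposed to compound for about 90 hours before reading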
[12] = target: Induced myeloid leukemia cell differentiation protein Mcl-1 (Homo sapiens, UniProt Q07820); type: functional
[13] = target: T7, DNA repair and recombination protein RAD54-like (Homo sapiens, UniProt Q92698); assay: inhibitors of human RAD54 branch migration, confirmation, biochemical, fluorescence, cherry-picked samples, dose series (AID 651657); type: functional
T7 sequence (Q92698 whole entry): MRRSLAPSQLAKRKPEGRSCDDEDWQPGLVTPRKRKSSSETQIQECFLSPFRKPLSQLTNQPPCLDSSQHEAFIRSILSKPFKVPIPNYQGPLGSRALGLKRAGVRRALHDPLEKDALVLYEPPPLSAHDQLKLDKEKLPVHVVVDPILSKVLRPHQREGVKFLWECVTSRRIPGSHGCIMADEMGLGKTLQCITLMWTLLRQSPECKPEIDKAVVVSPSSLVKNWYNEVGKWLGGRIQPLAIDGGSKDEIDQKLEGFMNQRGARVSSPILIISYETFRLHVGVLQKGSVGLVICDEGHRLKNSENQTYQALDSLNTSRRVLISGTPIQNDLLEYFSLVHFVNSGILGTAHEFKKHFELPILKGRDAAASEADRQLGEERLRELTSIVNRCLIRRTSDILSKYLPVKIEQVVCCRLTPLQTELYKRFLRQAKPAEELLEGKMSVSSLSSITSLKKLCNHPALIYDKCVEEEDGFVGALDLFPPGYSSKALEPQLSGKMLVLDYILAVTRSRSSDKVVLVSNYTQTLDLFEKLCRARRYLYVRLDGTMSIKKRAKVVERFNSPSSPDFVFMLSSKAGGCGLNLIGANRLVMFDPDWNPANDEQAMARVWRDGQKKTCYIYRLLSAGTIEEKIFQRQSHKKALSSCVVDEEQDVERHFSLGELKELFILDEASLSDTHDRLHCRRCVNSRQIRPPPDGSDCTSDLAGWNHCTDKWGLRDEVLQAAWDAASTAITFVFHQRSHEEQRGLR

H9c2 = assay: cells; type: functional, cell-based; details: Rattus norvegicus, H9c2, Myocardium;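 also: confirmatory concentration-response retest of ultra-high-throughput screening hits for modulation of myocardial damage; cell death induced by hydrogen peroxide oxidative stress; compound pretreatment for 60 min then peroxide exposure for 2 h; potency is for protecting the cells against peroxide damage rather than for killing them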
[14] = Luminescence Cell-Based Dose Confirmation HTS to Identify Activators of 5'UTR Stem-Loop Driven Alpha-Synuclein mRNA Translation in H4 Neuroglioblastoma Cells. [Related pubchem assays: 1829 (Project Summary), 1814 (Primary HTS)]; type: functional
[15] = Luminescence Cell-Based Dose Response HTS to Identify Activators of Luciferase Translation or Activity in H4 […] Cells. [Related pubchem assays: 1829 (Project Summary), 1814 (Primary HTS)]; type: functional
H4 = assay: Luminescence Cell-Based Dose Response HTS to Identify Activators of 5'UTR Stem-Loop Driven Prion Protein mRNA Translation in H4 Neuroglioblastoma Cells. [Related pubchem assays: 1829 (Project Summary), 1814 (Primary HTS)]; type: functional; details: Homo sapiens
[16] = P. falciparum Dd2 growth inhibitors, dose response, SYBR Green, cherry-picked samples (AID 1159567); type: functional, cell-based
[17] = HepG2 cell cytotoxicity, dose response, cytotoxicity control, cherry-picked samples (AID 1159577); type: functional, cell-based

Disintegrin and metalloproteinase domain-containing protein 17, sequence (P78536 whole entry, the tested form may be a part): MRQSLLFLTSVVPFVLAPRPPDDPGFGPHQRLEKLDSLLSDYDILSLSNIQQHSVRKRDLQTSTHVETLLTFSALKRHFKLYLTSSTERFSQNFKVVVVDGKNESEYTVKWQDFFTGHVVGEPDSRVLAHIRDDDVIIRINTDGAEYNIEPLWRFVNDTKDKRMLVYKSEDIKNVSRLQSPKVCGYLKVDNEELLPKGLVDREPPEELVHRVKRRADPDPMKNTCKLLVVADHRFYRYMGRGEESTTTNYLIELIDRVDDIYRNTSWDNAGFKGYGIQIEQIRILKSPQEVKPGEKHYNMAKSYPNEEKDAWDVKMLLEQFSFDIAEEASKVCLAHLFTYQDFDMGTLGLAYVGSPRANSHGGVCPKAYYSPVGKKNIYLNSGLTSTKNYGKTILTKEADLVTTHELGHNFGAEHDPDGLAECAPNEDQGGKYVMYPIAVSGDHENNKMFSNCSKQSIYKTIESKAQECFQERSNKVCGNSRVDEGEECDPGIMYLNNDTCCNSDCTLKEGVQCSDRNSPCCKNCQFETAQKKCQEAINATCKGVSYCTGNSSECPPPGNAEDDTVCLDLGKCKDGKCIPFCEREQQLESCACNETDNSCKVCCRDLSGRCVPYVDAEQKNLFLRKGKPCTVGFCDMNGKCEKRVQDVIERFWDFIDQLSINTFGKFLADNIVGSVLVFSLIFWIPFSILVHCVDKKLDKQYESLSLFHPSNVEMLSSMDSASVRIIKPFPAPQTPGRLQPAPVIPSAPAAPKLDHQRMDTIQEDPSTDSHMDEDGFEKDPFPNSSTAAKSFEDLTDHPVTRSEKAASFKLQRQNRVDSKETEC
Glyceraldehyde-3-phosphate dehydrogenase, sequence (P04406 whole entry): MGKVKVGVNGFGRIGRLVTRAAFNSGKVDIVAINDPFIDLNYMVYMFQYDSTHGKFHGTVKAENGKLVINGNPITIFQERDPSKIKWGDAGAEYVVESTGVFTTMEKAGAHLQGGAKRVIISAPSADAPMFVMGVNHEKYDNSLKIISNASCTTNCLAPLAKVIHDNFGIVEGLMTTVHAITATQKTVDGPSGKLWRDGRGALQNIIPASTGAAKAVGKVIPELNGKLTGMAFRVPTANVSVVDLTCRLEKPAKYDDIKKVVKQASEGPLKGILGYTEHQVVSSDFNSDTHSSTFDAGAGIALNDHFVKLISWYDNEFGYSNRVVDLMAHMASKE
Induced myeloid leukemia cell differentiation protein Mcl-1, sequence (Q07820 whole entry): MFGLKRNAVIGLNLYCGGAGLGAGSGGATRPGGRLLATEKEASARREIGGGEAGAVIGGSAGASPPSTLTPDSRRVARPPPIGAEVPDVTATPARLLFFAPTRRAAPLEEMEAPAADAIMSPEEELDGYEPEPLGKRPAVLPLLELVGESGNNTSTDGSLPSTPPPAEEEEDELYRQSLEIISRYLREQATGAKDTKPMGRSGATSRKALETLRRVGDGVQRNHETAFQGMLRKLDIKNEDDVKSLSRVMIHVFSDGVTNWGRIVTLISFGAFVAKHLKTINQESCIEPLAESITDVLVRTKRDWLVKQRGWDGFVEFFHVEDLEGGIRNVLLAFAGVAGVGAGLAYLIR

N#Cc1c(C(F)(F)F)cc(-c2ccccc2)nc1SCc1nc(N)nc(N2CCOCC2)n1
CC50 [1]: > 40 µM (active)
IC50 (Estrogen receptor): > 50 µM (not active)
Ki (fMet-Leu-Phe receptor): > 66.7 µM (inactive)

COc1ccc(CCNC2CCCCC2)cc1
EC50 [2]: > 50 µM (active)

Nc1nc(N2C(=O)C3CC=CCC3C2=O)nn1-c1ccccc1 (centres undefined)
IC50 [3]: > 100 µM (not active)
IC50 (Estrogen receptor): > 50 µM (not active)
IC50 [4]: > 100 µM (inactive)

CCCCn1cnc2cc(NCc3cccc(OC)c3O)ccc21
EC50 [2]: > 50 µM (active)

CCOc1cccc(NC(=O)Cn2nc(-c3ccc4c(c3)OCCO4)ccc2=O)c1
IC50 [5]: 13.7 µM (not active)
IC50 [6]: > 111 µM (not active)

Cc1[nH]c2ccc(O)cc2c1CCN
AC50 [7]: 4.06 µM (active)

CC(=O)Nc1ccc(NC(=O)C(C)OC(=O)c2oc3ccccc3c2C)cc1 (centres undefined)
IC50 [5]: 9.16 µM (active)
IC50 [6]: > 111 µM (not active)

COc1ccc2c(c1)c(CC(=O)Nc1ccc(C(C)=O)cc1)c(C)n2C(=O)c1ccc(Cl)cc1
IC50 [8]: > 69.5 µM (inactive)
IC50 [9]: > 69.5 µM (inactive)

Cc1ccc2[nH]c(O)c(N=Nc3nc4ccccc4s3)c2c1
CC50 [1]: 39.6 µM (active)
EC50 [10]: 3.38 µM (active)
EC50 [11]: > 60 µM (not active)
IC50 [12]: 2.11 µM (active)

CCN(CC)CCN(C(=O)C1=COCCO1)c1nc2c(OC)ccc(OC)c2s1
AC50 [13]: 23.5 µM (active)
AC50 [7]: 8.89 µM (active)

COc1ccc(CN([C@H](CO)CC(C)C)S(=O)(=O)N(Cc2ccccc2)[C@H](CO)CC(C)C)cc1
IC50 [8]: 5.93 µM (active)
IC50 [9]: > 69.5 µM (inactive)

C/C(=N\NC(=O)c1c(Br)c(C)nn1C)c1ccc(NC(=O)c2ccoc2C)cc1
EC50 [2]: > 50 µM (active)
IC50 [5]: 15.7 µM (not active)
IC50 [6]: > 111 µM (not active)
IC50 (H9c2): > 79 µM (inactive)

CCOC(=O)c1ccc(N2Cc3ccccc3/C2=N\C(=O)c2cccc([N+](=O)[O-])c2)cc1
EC50 [2]: > 50 µM (active)
EC50 [14]: 39.1 µM (active)
EC50 [15]: 12.3 µM (active)
EC50 (H4): 6.09 µM (active)

COc1ccc(-c2c/c(=N\c3ccc(C)cc3)c3ccccc3o2)cc1
CC50 [1]: > 40 µM (active)

COc1ccc2c3c([nH]c2c1)[C@H](CO)N(CC1CC1)CC31CCN(S(=O)(=O)c2cccc(F)c2)CC1
AC50 [16]: 4 µM (active)
AC50 [17]: > 39 µM (inactive)
